In patent publication US10030256B2, “Method for producing lysophosphatidylethanolamine 18:1 from microorganism of Pseudomonas sp” (KOREA RESEARCH INSTITUTE OF BIOSCIENCE AND BIOTECHNOLOGY, priority 2015, dated 2018):

Experiments:
NPR1 = NPR1 transition in transgenic plant carrying 35S::NPR1-eGFP; assay type: in vivo, Arabidopsis thaliana; conditions: 35S::NPR1-eGFP transgenic plants, observed 6 hours after spraying
Procedure: NPR1 transition was determined by spraying LPE (100 nmol ml^−1 in 0.018% Silwet L-77), salicylic acid (0.3 mM in 0.018% Silwet L-77), or mock solution (0.018% Silwet L-77) to a transgenic plant carrying 35S::NPR1-eGFP, and observing, 6 hours later, the plant leaf with a laser scanning confocal microscope (Zeiss, Germany).

[1] = system: PR1, PDF1.2, VSP1, JMT, ICS1, PAL1, ACS, LOX2; experiment: Gene expression analysis (RT-PCR / real-time qPCR) in Arabidopsis leaves after treatment; assay type: in vivo, Arabidopsis thaliana
Procedure: Total RNA was extracted by using RNA isolator (Gibco, USA) from a sample which has been frozen with liquid nitrogen (i.e., 2 leaves per sample). Reverse transcription polymerase chain reaction (RT-PCR) and real-time quantitative polymerase chain reaction (real-time qPCR) were carried out by using gene-specific primers. For the analysis of a real-time quantitative polymerase chain reaction, Applied Biosystems 7900 Real-Time PCR SYSTEM™ was used. 2×SYBR® Green qPCR master mix was used for PCT amplification. The analyzed data were normalized first against the amount of ACTIN1 gene, and the fold increase of gene expression according to treatment was determined in comparison with a mock or non-treatment plant (1.0 fold). Reference gene as an alternative (AT1G13320) was obtained from the previous study (Hong et al., 2010, Plant Cell Physiol. 51:1694-1706). The gene-specific primers that are used in the present invention are as described in Table 1 and Table 2 below.
(§1) Every phospholipid was purchased from Avanti Polar Lipids Inc. (USA), and free fatty acids (16:0, 18:0 and 18:1) were purchased from Sigma Co. (USA). The solvent was dried under nitrogen gas stream, and the lipids were suspended therein according to ultrasonication so as to have final concentration of 100 nmol ml^−1 in 0.018% silwet L-77 (or 200 nmol ml^−1 in H2O).
(§2) The mature form of the recombinant PLA2α protein was produced in Escherichia coli which is fused with Dsbc protein. According to the method described before (Ryu et al., 2005, Biochem Biophys Acta. 1736:144-151), it was purified by affinity chromatography. The protein mixture in which PLA2α and Dsbc are separated from each other or Dsbc:PLA2α fusion protein (10 μgml^−1) was treated on the leaf of pla2α mutant by syringe infiltration, each in an amount of 0.5 μg. The enzyme activity of PLA2α was determined by in vitro analysis using substrate PE for a reaction mixture containing 10 mM Ca^2+ and 0.05% Triton X-100 in 50 mM Tris-HCl (pH 8.5). The mock-treated plant was infiltrated with a buffer (50 mM Tris-HCl, pH 8.0) or Dsbc protein. For inactivation of the PLA2α activity, recombinant PLA2α was pre-treated for 30 minutes at 30° C. with 2 μM manoalide as an irreversible inhibitor.

PLA2α = biological target: T1, PLA2α (Arabidopsis thaliana, UniProt Q8S8N6); experiment: In vitro analysis of PLA2 activity (inactivation by manoalide); assay type: biochemical; conditions: 2 μM manoalide, 30 minutes at 30° C.
T1 construct: The mature form of the recombinant PLA2α protein was produced in Escherichia coli which is fused with Dsbc protein; DsbC; made in house; host or cells: Escherichia coli
T1 sequence (Q8S8N6 21-148): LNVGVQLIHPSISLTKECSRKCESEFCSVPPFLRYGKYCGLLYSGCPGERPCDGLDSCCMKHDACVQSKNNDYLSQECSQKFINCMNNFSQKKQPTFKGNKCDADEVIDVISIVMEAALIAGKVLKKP
Procedure: as §2

Pst-avrRpm1 = experiment: Recovery of local immune response in pla2α mutant plant by exogenous lipid after Pst-avrRpm1 inoculation; assay type: in vivo, Arabidopsis thaliana; conditions: for complementation of impaired local immunity of pla2α mutant plants (bacterial growth assay): FIG. 3B
Procedure: Arabidopsis plant was cultivated at temperature of 22° C. and relative humidity of 60% with conditions including 16 hours of light period and 120 μmoles m^−2s^−1 of photon flux density. Because the plant defense response is age-dependent, fully mature leaves of the 4 week old plant were used for various analyses. Arabidopsis (Arabidopsis thaliana) mutants including pla2α, pla2α-II, sid2, npr1-5, rps2 and ein2 (Salk_099415, CS857021, Salk_042603, CS3724, Salk_087581, CS3071 and CS8072, respectively) were purchased from Arabidopsis Biological Resource Center, USA. Arabidopsis mutants eds1 and pad4-5 were obtained from S. A. Whitham (Iowa State University, USA) and J. E. Parker (Max Planck Institute for Plant Breeding Research, Germany), respectively. The transgenic line expressing NPR1-eGFP and NahG were obtained from X. Dong (Duke University, USA) and O. M. Park (Korea University, South Korea), respectively.
(§3) Pseudomonas syringae pv. tomato DC3000 (hereinbelow, Pst) and Pst-avrRpm1, which is avrRpm1-containing bacterial strain with no virulency, were obtained from Y. J. Kim (Korea University, South Korea). Pst-avrRpt2, which is avrRpt2-containing bacterial strain with no virulency, was obtained from J. M. Park (KRIBB, South Korea) and Pst-avrRps4, which is avrRps4-containing bacterial strain with no virulency, was obtained from R. Innes (Indiana University, USA). The bacterial strains were cultured and treated according to the method of Katagiri, et al. (Arabidopsis Book, 2002, 1:e0039).
as §1
(§4) Based on the analysis of pla2α mutant plants compared to wild type, we hypothesized that the defect in immune responses of the pla2α mutant may be due to the failure to generate the lipid products that mediate downstream immune responses. To test this hypothesis, we supplemented pla2α mutant with LPE18:1 1.5 h after inoculation of Pst-avrRpm1. […] Very importantly, LPE by itself renders local immunity in the absence of avirulent Pst (FIGS. 3C-3E). […] In addition, disease symptoms were much reduced in LPE-sprayed leaves compared to mock-treated ones (FIG. 3E).

virulent Pst = experiment: Acquirement of local immunity against virulent Pst by treatment with only LPE; assay type: in vivo, Arabidopsis thaliana; conditions: for bacterial growth of virulent Pst: compared to mock treatment
Procedure: as §3, §1, §4

Pst = experiment: In vitro antibacterial activity against Pst; assay type: cell-based, Pseudomonas syringae pv. tomato DC3000
Procedure: In order to determine the antibacterial activity of PLA2α, 3 μg of recombinant PLA2α in free and mature form, which has been prepared according to the method by Ryu et al. (Biochem Biophys Acta. 2005, 1736:144-151), was added to 100 μl of a solution (Tris-HCl (50 mM, pH 8.0), 10 mM calcium chloride (CaCl2)) in which virulent Pst (5×10^5 CFU ml^1) is suspended. The bacteria sample was cultured in a weak shaking state at 28° C. for 6 hours. Thereafter, only the survived bacteria were titrated. As a mock control group, a suspension in which the bacteria are suspended in a solution having no PLA2α was used.

[2] = system: salicylic acid, ethylene, and jasmonic acid; experiment: Quantification of salicylic acid, ethylene and jasmonic acid in Arabidopsis leaf; assay type: in vivo, Arabidopsis thaliana
Description: According to the method described before (Bowling et al., 1994, Plant Cell 6:1845-1857; Heck et al., 2003, Plant J. 36:342-352), salicylic acid, ethylene, and jasmonic acid were quantified from 0.5 g of a Arabidopsis leaf sample which has been sprayed with Pst-avrRpm1 suspension (1×10^8 CFU ml^−1 in 0.018% Silwet L-77) or LPE (100 nmol ml^−1 in 0.018% Silwet L-77 or 200 nmol ml^−1 in H2O).

[3] = suppression of aging; cited from earlier work

## O=C(O)c1ccccc1O [SA, salicylic acid, reference compound]
NPR1
  NPR1 translocation from the cytoplasm to the nucleus: as did SA treatment

## CC1=C(CC/C(C)=C/CCC2=CC[C@H](C3=CC(=O)O[C@H]3O)O[C@H]2O)C(C)(C)CCC1 [manoalide, reference compound]
[1]; rPLA2α pre-treated with PLA2 inhibitor manoalide
  PR1 gene expression by rPLA2α catalytically inactivated with manoalide: failed to induce PR1 gene expression
PLA2α
  inactivation of the PLA2α activity: Inactivation of the PLA2α activity caused by manoalide was confirmed

## lysophosphatidylethanolamine 18:1 [LPE18:1]
Pst-avrRpm1; FIG. 3A
  recovery of phenotypic defect of pla2α mutant plant: recovery of phenotypic defect
Pst-avrRpm1
  complementation of impaired local immunity of pla2α mutant plants (bacterial growth assay): complemented by LPE
Pst-avrRpm1; pla2α mutant supplemented 1.5 h after inoculation of Pst-avrRpm1
  ability of the pla2α mutant to induce local immune responses: restored the ability of the pla2α mutant to induce local immune responses
[1]; Arabidopsis leaves
  ACS gene expression: exhibited ACS gene expression
  LOX2 gene expression: did not exhibit a significant increase in LOX2 gene expression
  PAL1 expression: did not elevate PAL1 expression
[1]; Arabidopsis leaves, 6 h post-treatment
  ICS1 gene expression: displayed ICS1 gene expression
[1]; sid2 mutant
  PR1 gene expression in the sid2 mutant plants: failed to induce PR1 gene expression
[1]; wild type leaf, LPE vs mock, absence of avirulent Pst
  expression of the PR genes PR1 and PDF1.2: induced the expression of the PR genes PR1 and PDF1.2
Virulent Pst; LPE-sprayed leaves compared to mock-treated
  disease symptoms: much reduced
Virulent Pst; pla2α mutant plants
  bacterial growth of virulent Pst: suppressed the bacterial growth
Virulent Pst; wild type plants
  bacterial growth of virulent Pst: suppressed the bacterial growth
Pst
  direct effect on bacterial growth in in vitro assays: no direct effect on bacterial growth
[2]; Arabidopsis leaves
  JA levels: did not exhibit a significant increase
  ethylene levels: an increase in ethylene levels
[2]; Arabidopsis leaves treated with LPE18:1
  increase in SA levels: 2.5 fold
NPR1
  NPR1 translocation from the cytoplasm to the nucleus: activated NPR1 by inducing its translocation from the cytoplasm to the nucleus
[3]
  biological efficacy compared with LPE 16:0 or LPE 18:0: much higher biological efficacy

## lysophosphatidylglycerol [LPG, reference compound]
Pst-avrRpm1
  complementation of impaired local immunity of pla2α mutant plants (bacterial growth assay): only a little
